Tests used:
[1] = biological target: T1, Endothelin receptor type B (Homo sapiens, UniProt P24530); assay: Inhibition of Human Endothelin B receptor expressed in CHO Cells.
T1 sequence (P24530 whole entry): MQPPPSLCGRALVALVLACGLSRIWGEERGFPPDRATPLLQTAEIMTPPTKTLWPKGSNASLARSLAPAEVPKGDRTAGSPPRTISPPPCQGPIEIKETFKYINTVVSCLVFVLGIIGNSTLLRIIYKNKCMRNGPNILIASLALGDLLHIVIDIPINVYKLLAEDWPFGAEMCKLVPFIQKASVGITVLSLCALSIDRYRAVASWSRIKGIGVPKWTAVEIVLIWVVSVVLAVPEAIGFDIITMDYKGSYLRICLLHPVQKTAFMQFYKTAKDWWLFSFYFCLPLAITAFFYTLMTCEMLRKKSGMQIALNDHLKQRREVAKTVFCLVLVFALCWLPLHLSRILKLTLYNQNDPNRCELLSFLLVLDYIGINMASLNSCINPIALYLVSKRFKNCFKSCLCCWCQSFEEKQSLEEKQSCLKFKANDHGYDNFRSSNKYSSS

Oryctolagus cuniculus = species: Oryctolagus cuniculus; assay: Inhibition of Endothelin-1 induced contractions in rabbit carotid artery rings.; type: functional
Endothelin-1 receptor = biological target: T2, Endothelin-1 receptor (Homo sapiens, UniProt P25101)
T2 sequence (P25101 whole entry): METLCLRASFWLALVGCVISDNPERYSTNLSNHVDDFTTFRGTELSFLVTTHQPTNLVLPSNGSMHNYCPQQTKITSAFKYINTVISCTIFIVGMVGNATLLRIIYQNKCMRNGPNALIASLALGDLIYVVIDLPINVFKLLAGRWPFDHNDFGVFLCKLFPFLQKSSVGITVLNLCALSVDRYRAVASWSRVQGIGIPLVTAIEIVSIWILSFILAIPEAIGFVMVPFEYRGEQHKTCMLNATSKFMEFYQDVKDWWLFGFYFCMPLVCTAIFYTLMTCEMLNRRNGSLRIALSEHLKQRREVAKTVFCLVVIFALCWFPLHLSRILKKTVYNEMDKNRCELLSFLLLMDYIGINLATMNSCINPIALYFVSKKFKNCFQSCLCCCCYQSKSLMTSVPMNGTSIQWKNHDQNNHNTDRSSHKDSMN
Description: Inhibition of Human Endothelin A receptor expressed in CHO Cells.

SMILES | Ki [1] [nM] | Kb (Oryctolagus cuniculus) [nM] | Ki (Endothelin-1 receptor) [nM]
Cc1noc(NS(=O)(=O)c2ccccc2-c2ccc(-c3ncoc3C)cc2)c1C | 94000 | 47 | 4.7
Cc1coc(-c2ccc(-c3ccccc3S(=O)(=O)Nc3onc(C)c3C)cc2)n1 | 100000 | 18 | 2
Cc1noc(NS(=O)(=O)c2ccccc2-c2ccc(-c3cocn3)cc2)c1C | 20000 | 20 | 0.5
Cc1noc(NS(=O)(=O)c2ccccc2-c2ccc(CC(C)C)cc2)c1C | 1700 | 210 | 18
Cc1noc(NS(=O)(=O)c2ccccc2-c2ccc(CC(C)C)cc2N)c1C | – | – | 4.7
Cc1nc(-c2ccc(-c3ccccc3S(=O)(=O)Nc3onc(C)c3C)cc2)oc1C | 12000 | 230 | 16
Cc1nc(-c2ccc(-c3ccccc3S(=O)(=O)Nc3onc(C)c3C)cc2)co1 | 110000 | 2500 | 70
Cc1noc(NS(=O)(=O)c2ccccc2-c2ccc(-c3cnco3)cc2)c1C | 78000 | 58 | 3.7
Cc1noc(NS(=O)(=O)c2ccccc2-c2ccc(-c3nc4ccccc4o3)cc2)c1C | 94000 | – | 2000
Cc1noc(NS(=O)(=O)c2ccccc2-c2ccc(Cc3ncco3)cc2)c1C | 34000 | 320 | 19
Cc1cnc(-c2ccc(-c3ccccc3S(=O)(=O)Nc3onc(C)c3C)cc2)o1 | 12000 | 140 | 11
